In patent USRE47084E1, “Oral medicinal product with modified release of at least one active principle in multimicrocapsular form” (FLAMEL IRELAND LIMITED, priority 2003, dated 2018) one finds solubility data, which are given here for four molecules.

This data set can be described thus: Solubility of the active principles. Format: physicochemical.

≈ marks a conversion by molar mass, not a printed value.

For `Nc1nc2c(ncn2COCCO)c(=O)[nH]1` [Acyclovir], the solubility – broadly, the concentration that dissolves in the medium under given conditions – turned out to be 10000 µg/mL (≈ 44400 µM).

With `Cc1c(OCC(F)(F)F)ccnc1C[S+]([O-])c1nc2ccccc2[nH]1` (stereo not shown) [Lansoprazole], the solubility was determined as 50 µg/mL (≈ 135 µM).

`O=C1CN(/N=C/c2ccc([N+](=O)[O-])o2)C(=O)N1` [Nitrofurantoin] yielded a solubility of 300 µg/mL (≈ 1260 µM).

In turn, `CC(=O)S[C@@H]1CC2=CC(=O)CC[C@]2(C)[C@H]2CC[C@@]3(C)[C@@H](CC[C@@]34CCC(=O)O4)[C@H]12` [Spironolactone] gave a solubility of 20 µg/mL (≈ 48 µM).
